Patent US20010007016A1, “PEPTIDE DERIVATIVES” (priority 1994, published 2001)

Assays:
Mice [1] = assay: Analgesic activity by pressure stimulation method, Method A (UGO BASILE analgesy meter Model 7,200, tail pressure in grams); type: in vivo; conditions: for ED50: Mus musculus, read-out: ED50 (dose that induced 50 percent of % of MPE)
Protocol: (§1) The analgesic activities of the peptide derivatives of the present invention were evaluated by the pressure stimulation method using one of two devices. In method A, analgesy meter Model 7,200 manufactured by UGO BASILE (Comerio, Italy) was used (units of tail pressure expressed in grams). In method B, an apparatus made by inventor Professor S. Sakurada was used (units of tail pressure expressed in mmHg). Mice were subjected to pressure stimulation at the bases of their tails at a given rate(Method A: 32 g/s; Method B: 10 mmHg/second). […] For the experiments, mice that normally responded to a given pressure of 100-200 g (Method A) or 40-50 mmHg (Method B) were used. The maximum stimulating pressure was 500 g (Method A) or 100 mmHg (Method B). Analgesic activity was calculated as percent of maximum possible effect (% of MPE) according to the equation: [formula]
(§2) Wherein Po is the pain reaction threshold before the administration of a drug; Pt is the pain reaction threshold “t” minutes after the administration of the drug; and Pc is the maximum stimulating pressure. ED5 0 values were calculated based on dose response curves as doses that induced 50 percent of % of MPE and analgesic activities of the drugs were compared. The results obtained from subcutaneous administration (s.c.; skin on the backs of the mice was used) and oral administration (p.o.) are shown in Table 3.

Mice [2] = assay: Analgesic activity by pressure stimulation method, Method B (apparatus made by Professor S. Sakurada, tail pressure in mmHg); type: in vivo; conditions: for ED50: Mus musculus, read-out: ED50 (dose that induced 50 percent of % of MPE)
Protocol: as §1, §2

Compound	ED50 (dose that induced 50 percent of % of MPE) (Mice [1]; p.o.) [mg/kg]	ED50 (dose that induced 50 percent of % of MPE) (Mice [1]; s.c.) [mg/kg]	ED50 (dose that induced 50 percent of % of MPE) (Mice [2]; s.c.) [mg/kg]	also measured
H2NC(NH)-Tyr-D-Arg-Phe-N(CH3)CH2CH2COOH	5.8	0.09		
CN1CC[C@]23c4c5ccc(O)c4O[C@H]2[C@@H](O)C=C[C@H]3[C@H]1C5 [morphine, reference compound]				ED50 (Mice [1]; po): 22.2 mg/kg; ED50 (Mice [1]; sc): 3.3 mg/kg; ED50 (Mice [2]; po): 29.6 mg/kg; ED50 (Mice [2]; sc): 4.6 mg/kg
H2NC(NH)-Tyr-D-Arg-Phe-N(CH3)CH2COOH			0.13	ED50 (dose that induced 50 percent of % of MPE) (Mice [2]; p.o.): 4.9 mg/kg
H2NC(NH)-Tyr-D-Arg-Phe-N(CH3)CH2COHN2			0.27	
H2NC(NH)-Tyr-D-Arg-Phe-N(Me)2			1.22	
H2NC(NH)-Tyr-D-Arg-Phe-NHCH2CH2COOH	18.5	0.32		
